Measured values: patent US11590128B2, “Combination therapy of a type II anti-CD20 antibody with a selective BCL-2 inhibitor” (GENENTECH, INC., priority 2012, dated 2023)

Assays:
[1] = system: SU.DHL-4 diffuse large B-cell lymphoma xenograft; assay: NHL xenograft model of aggressive lymphoma (DLBCL SU.DHL-4), Example 1; format: in vivo, mice
Excerpt: The study used a non-Hodgkin's lymphoma (NHL) xenograft model of aggressive lymphoma, the diffuse large B-cell lymphoma (DLBCL) derived cell line SU.DHL-4.
In FIG. 1, the dose of GDC-0199 is expressed as free base equivalents in mg/kg of body weight. Results are expressed as the fitted tumor volume as determined by linear mixed effects modeling for each treatment group vs. time in days, where Day 0 is the first day of treatment.

[2] = system: human Z138 mantle cell lymphoma cells; assay: Tumor growth inhibition study in vivo, Z138 mantle cell lymphoma xenograft, Example 3; parameters: species or system SCID beige mice; settings: day 35 after tumor cell inoculation; antibodies 1 mg/kg i.p. once weekly x3; GDC-0199 100 mg/kg p.o. once daily for 17 days
Description: Animals. […] Continuous health monitoring was carried out on regular basis.
Monitoring. Animals were controlled daily for clinical symptoms and detection of adverse effects.
Treatment of animals. […] The corresponding vehicle was administered on the same days.

[3] = system: DLBCL SU-DHL-4 xenograft; assay: DLBCL SU-DHL-4 xenograft model, combination followed by single-agent GDC-0199, Example 4; format: in vivo, mice; settings: GDC-0199 orally for 21 days, GA101 1 mg/kg QW for 3 weeks; alone or in combination
Description: At day 22 tumor bearing mice in the combination cohort continued to be dosed with GDC-0199 alone at 100 mg/kg for an additional 24 days.
As explained above, a cohort of tumor bearing mice was also dosed with GDC-0199 alone for an additional 24 days after combination treatment ended on day 21 (QD×45). Under the x-axis, treatment periods are denoted by solid black lines ( ? ) for the combination cohorts while the continued single agent GDC-0199 treatment is denoted by dashed black line ( ? ).

| Molecule | tumor growth inhibition (TGI) ([1]; after three weeks of therapy (treatment ended day 21)) [%] | tumor growth inhibition (TGI) ([1]; at day 31 (10 days after dosing ended)) [%] | antitumor outcome (in words) ([1]; obinutuzumab 1 mg/kg IV once a week for 3 weeks, GDC-0199 100 mg/kg QD for 21 days, alone or combined) | tumor growth inhibition compared to the control group [2] [%] | tumor growth inhibition (TGI) [3] [%] |
| --- | --- | --- | --- | --- | --- |
| CC1(C)CCC(CN2CCN(c3ccc(C(=O)NS(=O)(=O)c4ccc(NCC5CCOCC5)c([N+](=O)[O-])c4)c(Oc4cnc5[nH]ccc5c4)c3)CC2)=C(c2ccc(Cl)cc2)C1 [GDC-0199, 2-(1H-pyrrolo[2,3-b]pyridin-5-yloxy)-4-(4-((2-(4-chlorophenyl)-4,4-dimethylcyclohex-1-enyl)methyl)piperazin-1-yl)-N-(3-nitro-4-(((tetrahydro-2H-pyran-4-yl)methyl)amino)phenylsulfonyl)benzamide] | 80 | 25 | stasis followed by tumor growth delay | 59 | 24 |
| rituximab: type I anti-CD20 antibody |  |  |  | 32 |  |
